# From US10732092B2, “Analysis of single cell mechanical phenotyping for metastatic detection” (University of Maryland, College Park, priority 2015, dated 2020)
# Key:
# cells (nucleus) = test: Brillouin and fluorescence 2D imaging of cells with and without CytoD treatment (setup of FIG. 21); assay type: cell-based; details: treated vs control group, FIGS. 23a, 23b
# Procedure: FIG. 21 illustrates a Brillouin spectroscopy setup according to another embodiment of the current invention. In this embodiment, a second optical modality is added to acquire a co-registered confocal fluorescence image of the cell simultaneously when the cell is probed by the Brillouin beam. The second optical modality may comprise a dichroic mirror 2127, a tube lens 2122, a pinhole mask 2126, and a photo-detector 2125. The dichroic mirror 2127 will let the laser beam 2110 and the Brillouin signal pass through but reflects the fluorescence light. Compared with the bright-field microscope of FIG. 12, the confocal configuration has better transverse and lateral optical resolution by rejecting fluorescence light from the out-of-focus plane. In practice, fluorescently labelled cells can be used to identify a sub-region of a cell (e.g., nucleus) and the focused spot of laser beam 2110 can be used to directly excite fluorescence emission. Then, the confocal configuration is used to detect the fluorescence emission light by a camera 2125. Based on the intensity of the fluorescence emission light, one can accurately determine the location of the focused spot (and thus the Brillouin signal) inside the cell so that the Brillouin signal can be assigned to a targeted point. […]
# As an example of classifying cells using the embodiment of FIG. 21, effect of CytoD on the cells was analyzed. […]
# adherent cells = test: Cytoskeletal stiffness of adherent cells treated with CytoD; assay type: cell-based
# F-actin = details: attached cells treated with CytoD; cited from earlier work
# NIH 3T3 cell line [1] = test: Brillouin flow cytometry of CytoD-treated suspended cells (setup of FIG. 12); assay type: cell-based
# From the text: FIG. 12 illustrates an exemplary embodiment of the current invention resulting from a novel combination of an epi-detection path to excite/collect Brillouin signal, a monitoring imaging modality, a microfluidic device (or other cell plating device), a Brillouin spectrometer and a computer with software that links all of these sub-components. A first incoming illuminating beam 1210 is focused onto one spot inside a microfluidic device 1230 by using a beam splitter 1211 and an objective lens 1212. The illuminating laser beam 1210 may be a laser beam. In one embodiment, the first incoming laser beam 1210 is focused into spot of 1 to 10 μm. The backward Brillouin scattering light is collected by the same objective lens 1212 and guided to a Brillouin spectrometer 1215 via the beam splitter 1211, a reflected mirror 1213, and a coupling lens 1214. The Brillouin spectrometer 1215 is a device that can measure the Brillouin frequency shift accurately. One example of the Brillouin spectrometer 1215 is disclosed in Scarcelli Polachech 2015 Nature Methods Above the microfluidic device 1230, there is a bright-field microscope consisting of a second light source 1220 (usually has a different wavelength from laser beam 1210), a beam splitter 1221, a tube lens 1222, an objective lens 1224, and a 2D image recording device 1225. The purpose of this microscope setup is to monitor the flowing status of the cells inside the microfluidic device 1230. In one embodiment, the microscope setup further contains a spectral filter 1223, which blocks the light from the laser beam 1210, but allows the light from a light source 1220 to pass. […]
# In yet another embodiment, a second approach, named as image-guided alignment, may be used to align the flowing cell to the focused spot of the laser beam 1210. […] Suppose a cell 1630 is flowing along y-direction (from top to bottom), once it appears in the field of view, its location (x1) and the horizontal shift (x0-x1) with respect to the focused spot 1620 can be determined. […] In this case, all of the measured data points were used to plot the histogram graph in FIG. 17a. […]
# NIH 3T3 fibroblast cells [2] = test: Inhibition of actin filament, Brillouin-based label-free flow cytometry; assay type: cell-based; details: cytoD 2 ug/mL for 10 minutes; 232 treated cells; FIG. 33B
# Procedure: (§1) Two drugs, cytochalasin D (cytoD) and nocodazole (Noco), were applied to 3T3 cells to inhibit the actin filament and microtubules filament, respectively. NIH 3T3 fibroblast cells purchased from American Type Culture Collection (ATCC) were used for all experiments. Cells were cultured following standard protocols. For inhibitation of microtubules filament, cells were first treated by Noco of 1 ug/mL for 30 minutes, and then harvested by trypsinization and re-suspended in a solution of phosphate-buffered saline (PBS) without Mg^2+ and Ca^2+ at a concentration of ˜0.1 million cells per ML before measurement. Due to the low concentration, few cells were captured by flowing. Instead, a single cell in suspension was imaged after it was delivered into the microfluidic devices. […] The Brillouin shift of the treated cell 3312 is 0.29 GHz higher, indicating a distinct stiffening of its nucleus. Considering the sensitivity of the instrument is ˜0.01 GHz, microtubules filament-inhibited cells were easily identified from normal cells based on the mechanical stiffening of the nucleus.
# For inhibition of actin filament, cells were first treated by cytoD of 2 ug/mL for 10 minutes, and then harvested by trypsinization and re-suspended in a solution of phosphate-buffered saline (PBS) without Mg^2+ and Ca^2+ at a concentration of ˜1 million cells per mL before measurement. […]
# NIH 3T3 fibroblast cells [3] = test: Inhibition of microtubules filament, Brillouin imaging of single suspended cell; assay type: cell-based; details: Noco 1 ug/mL for 30 minutes; single cell in suspension; FIG. 33A
# Procedure: as §1
# NIH 3T3 cell line [4] = test: Chromatin decondensation experiment, Brillouin mechanical cytometry of TSA-treated cells; assay type: cell-based; details: TSA 100 ng/mL, 2 hours
# From the text: A vertically-polarized laser beam 2628 is first reflected by the polarized beam splitter (PBS) 2634 and focused into the center of a microfluidic channel 2624 from the bottom side by objective lens 2632. In one embodiment, a 11-mW single-mode linearly-polarized 532-nm cw laser (Torus, Laser Quantum) was used as a light source to excite Brillouin scattering. Due to the quarter-wave plate (QWP) 2626, the focused beam was circularly polarized. The backward scattered light was collected by the same objective lens 2632 and passed through the QWP 2626 again. The circularly-polarized light is eventually turned into horizontally-polarized one which is totally transmitted by the PBS 2634. […] The location of the focused Brillouin beam was pre-determined by removing the long-pass filter (LP) 2612. […] In one embodiment, a CCD camera 2610 and the Brillouin spectrometer 2638 were synchronized by a LabVIEW program so that the spectrometer's data can be assigned to the corresponding location of the measured sample. […] When a cell passes through the beam location (white dots indicated by the arrows), its Brillouin shift is measured. […]
# Cells are cultured and re-suspended in a solution of phosphate-buffered saline (PBS) without Mg2+ and Ca2+. […] Cells without washing are then ready for fluorescence experiment. […]
compound,measurement,setting,value
"C=C1[C@@H](C)[C@H]2[C@H](Cc3ccccc3)NC(=O)[C@]23[C@H](OC(C)=O)/C=C/[C@@](C)(O)C(=O)[C@@H](C)C/C=C/[C@H]3[C@@H]1O [CytoD, cytochalasin D]",nucleus stiffness (Brillouin signal vs fluorescence intensity),cells (nucleus),much softened
same,cytoskeletal stiffness,adherent cells,markedly reduced
same,F-actin,F-actin,dramatically reduced
same,Brillouin frequency shift of cytoplasm peaks,"NIH 3T3 cell line [1]; NIH 3T3, suspended after trypsinization, CytoD 0.5, 2, 5 ug/ml, FIGS. 20b-20e",almost no change
same,stiffness of the cells (average Brillouin frequency shift over the whole cell),"NIH 3T3 cell line [1]; NIH 3T3, suspended in PBS, CytoD 0.5, 2 and 5 ug/ml, FIG. 20a",dose dependent effect
same,Brillouin frequency shift of nucleus peak (nucleus stiffness),"NIH 3T3 cell line [1]; NIH 3T3, suspended, increasing dose of CytoD 0.5, 2, 5 ug/ml, FIGS. 20b-20e",nucleus is getting softer
same,"decrease of averaged Brillouin shift of the nucleus, treated group vs control group",NIH 3T3 fibroblast cells [2],0.12 GHz
"COC(=O)Nc1nc2ccc(C(=O)c3cccs3)cc2[nH]1 [Noco, nocodazole]","increase of averaged Brillouin shift of the nucleus, treated cell vs control",NIH 3T3 fibroblast cells [3],0.29 GHz
"CC(/C=C/C(=O)NO)=C\[C@@H](C)C(=O)c1ccc(N(C)C)cc1 [TSA, trichostatin A]",Brillouin shift of the nucleus after treatment,"NIH 3T3 cell line [4]; control nucleus 7.80 GHz, 356 treated cells",7.71 GHz
same,Brillouin shift of the cytoplasm after treatment,NIH 3T3 cell line [4]; same as control,7.56 GHz
